Assay results taken from patent US9963464B2, “Macrocyclic compounds” (Bayer Pharma Aktiengesellschaft, priority 2014, dated 2018).
Read-outs that look alike come from different tables or passages of the source.

Tests used:
HeLa cells = test: Proliferation assay HeLa; assay type: cell-based, human; settings: 4 days, crystal violet, read-out: Inhibition of HeLa cell proliferation IC50
Experimental: (§1) Cultivated tumour cells (HeLa, human cervical tumour cells, ATCC CCL-2; NCI-H460, human non-small cell lung carcinoma cells, ATCC HTB-177; A2780, human ovarian carcinoma cells, ECACC #93112519; DU 145, hormone-independent human prostate carcinoma cells, ATCC HTB-81; HeLa-MaTu-ADR, multidrug-resistant human cervical carcinoma cells, EPO-GmbH Berlin; Caco-2, human colorectal carcinoma cells, ATCC HTB-37; B16F10, mouse melanoma cells, ATCC CRL-6475) were plated at a density of 5,000 cells/well (DU145, HeLa-MaTu-ADR), 3,000 cells/well (NCI-H460, HeLa), 2,500 cells/well (A2780), 1,500 cells/well (Caco-2), or 1,000 cells/well (B16F10) in a 96-well multititer plate in 200 μL of their respective growth medium supplemented 10% fetal calf serum. After 24 hours, the cells of one plate (zero-point plate) were stained with crystal violet (see below), while the medium of the other plates was replaced by fresh culture medium (200 μl), to which the test substances were added in various concentrations (0 μM, as well as in the range of 0.001-10 μM). The cells were incubated for 4 days in the presence of test substances. Cell proliferation was determined by staining the cells with crystal violet: the cells were fixed by adding 20 μl/measuring point of an 11% glutaric aldehyde solution for 15 minutes at room temperature. After three washing cycles of the fixed cells with water, the plates were dried at room temperature. The cells were stained by adding 100 μl/measuring point of a 0.1% crystal violet solution (pH 3.0). After three washing cycles of the stained cells with water, the plates were dried at room temperature. The dye was dissolved by adding 100 μl/measuring point of a 10% acetic acid solution. The extinction was determined by photometry at a wavelength of 595 nm. The change of cell number, in percent, was calculated by normalization of the measured values to the extinction values of the zero-point plate (=0%) and the extinction of the untreated (0 μm) cells (=100%). The IC50 values (inhibitory concentration at 50% of maximal effect) were determined by means of a 4 parameter fit. Non-adherent MOLM-13 human acute myeloid leukemia cells (DSMZ ACC 554) were seeded at a density of 5,000 cells/well in a 96-well multititer plate in 100 μL of growth medium supplemented 10% fetal calf serum. After 24 hours, cell viability of one plate (zero-point plate) was determined with the Cell Titre-Glo Luminescent Cell Viability Assay (Promega), while 50 μL of test compound containing medium was added to the wells of the other plates (final concentrations in the range of 0.001-1 μM and DMSO controls). Cell viability was assessed after 72-hour exposure with the Cell Titre-Glo Luminescent Cell Viability Assay (Promega). IC50 values (inhibitory concentration at 50% of maximal effect) were determined by means of a 4 parameter fit on measurement data which were normalized to vehicle (DMSO) treated cells (=100%) and measurement readings taken immediately before compound exposure (=0%).

B16F10 cells = test: Proliferation assay B16F10; assay type: cell-based, mouse; settings: Mus musculus, B16-F10, 96 h; 4 days, crystal violet; read-out: Inhibition of B16F10 cell proliferation IC50
Experimental: as §1

| Compound | IC50 (HeLa cells; Homo sapiens, HeLa, 96 h) | IC50 (B16F10 cells) | IC50 (HeLa cells; trifluoroacetate) | IC50 (HeLa cells) |
| --- | --- | --- | --- | --- |
| CS(=N)(=O)Cc1cc2nc(c1)OCCCOc1cc(F)ccc1-c1cc(ncc1F)N2 (racemic) [Example 5, (rac)-15,19-Difluoro-8-[(S-methylsulfonimidoyl)methyl]-3,4-dihydro-2H,11H-10,6-(azeno)-12,16-(metheno)-1,5,11,13-benzodioxadiazacyclooctadecine] | 2 nM | 4 nM | – | – |
| C[S+]([O-])Cc1cc2nc(c1)OCCOc1cc(F)ccc1-c1cc(ncc1F)N2 (racemic) [Example 10, (rac)-14,18-difluoro-7-[(methylsulfinyl)methyl]-2,3-dihydro-10H-9,5-(azeno)-11,15-(metheno)-1,4,10,12-benzodioxadiazacycloheptadecine] | 195 nM | 410 nM | – | – |
| CS(=N)(=O)Cc1cc2nc(c1)OCCOc1cc(F)ccc1-c1cc(ncc1F)N2 (racemic) [Example 11, (rac)-14,18-difluoro-7-[(S-methylsulfonimidoyl)methyl]-2,3-dihydro-10H-9,5-(azeno)-11,15-(metheno)-1,4,10,12-benzodioxadiazacycloheptadecine] | 94 nM | 200 nM | – | – |
| C[S+]([O-])Cc1cc2nc(c1)OCCCCOc1cc(F)ccc1-c1cc(ncc1F)N2 (racemic) [Example 13, (rac)-16,20-difluoro-9-[(methylsulfinyl)methyl]-2,3,4,5-tetrahydro-12H-11,7-(azeno)-13,17-(metheno)-1,6,12,14-benzodioxadiazacyclononadecine] | – | 30 nM | – | – |
| CS(=N)(=O)Cc1cc2cc(c1)OCCCOc1cc(F)ccc1-c1nc(ncc1F)N2 (racemic) [Example 15, (rac)-15,19-difluoro-8-[(S-methylsulfonimidoyl)methyl]-3,4-dihydro-2H,11H-12,16-(azeno)-10,6-(metheno)-1,5,11,13-benzodioxadiazacyclooctadecine] | 9 nM | 23 nM | – | – |
| CN=S(C)(=O)Cc1cc2nc(c1)OCCCOc1cc(F)ccc1-c1cc(ncc1F)N2 (racemic) [Example 19, (rac)-8-[(N,S-dimethylsulfonimidoyl)methyl]-15,19-difluoro-3,4-dihydro-2H,11H-10,6-(azeno)-12,16-(metheno)-1,5,11,13-benzodioxadiazacyclooctadecine] | 31 nM | – | – | – |
| CS(=O)(Cc1cc2nc(c1)OCCCOc1cc(F)ccc1-c1cc(ncc1F)N2)=NC(=O)OCCCl (racemic) [Example 21, (rac)-2-chloroethyl [{[15,19-difluoro-3,4-dihydro-2H,11H-10,6-(azeno)-12,16-(metheno)-1,5,11,13-benzodioxadiazacyclooctadecin-8-yl]methyl}(methyl)oxido-λ^6-sulfanylidene]carbamate] | 11 nM | – | – | – |
| CS(=O)(=O)N=S(C)(=O)Cc1cc2nc(c1)OCCCOc1cc(F)ccc1-c1cc(ncc1F)N2 (racemic) [Example 22, (rac)-N-[{[15,19-difluoro-3,4-dihydro-2H,11H-10,6-(azeno)-12,16-(metheno)-1,5,11,13-benzodioxadiazacyclooctadecin-8-yl]methyl}(methyl)oxido-λ^6-sulfanylidene]methanesulfonamide] | 17 nM | – | – | – |
| CS(=O)(Cc1cc2nc(c1)OCCCOc1cc(F)ccc1-c1cc(ncc1F)N2)=NS(=O)(=O)CCN (racemic) [Example 23, (rac)-2-amino-N-[{[15,19-difluoro-3,4-dihydro-2H,11H-10,6-(azeno)-12,16-(metheno)-1,5,11,13-benzodioxadiazacyclooctadecin-8-yl]methyl}(methyl)oxido-λ^6-sulfanylidene]ethanesulfonamide] | 57 nM | – | – | – |
| CS(=O)(Cc1cc2nc(c1)OCCCOc1cc(F)ccc1-c1cc(ncc1F)N2)=NS(=O)(=O)CCN.O=C(O)C(F)(F)F (racemic) [Example 24, (rac)-2-{[{[15,19-difluoro-3,4-dihydro-2H,11H-10,6-(azeno)-12,16-(metheno)-1,5,11,13-benzodioxadiazacyclooctadecin-8-yl]methyl}(methyl)oxido-λ^6-sulfanylidene]sulfamoyl}ethanaminium trifluoroacetate] | – | – | 82 nM | – |
| CS(=O)(Cc1cc2nc(c1)OCCCOc1cc(F)ccc1-c1cc(ncc1F)N2)=NC(=O)OCCN (racemic) [Example 25, (rac)-2-aminoethyl [{[15,19-difluoro-3,4-dihydro-2H,11H-10,6-(azeno)-12,16-(metheno)-1,5,11,13-benzodioxadiazacyclooctadecin-8-yl]methyl}(methyl)oxido-λ^6-sulfanylidene]carbamate] | 14 nM | – | – | – |
| NCCS(=O)(=O)Cc1cc2nc(c1)OCCCOc1cc(F)ccc1-c1cc(ncc1F)N2 [Example 26, 2-({[15,19-difluoro-3,4-dihydro-2H,11H-10,6-(azeno)-12,16-(metheno)-1,5,11,13-benzodioxadiazacyclooctadecin-8-yl]methyl}sulfonyl)ethanamine] | 105 nM | – | – | – |
| ({[15,19-difluoro-3,4-dihydro-2H,11H-10,6-(azeno)-12,16-(metheno)-1,5,11,13-benzodioxadiazacyclooctadecin-8-yl]methyl}sulfonyl)acetic acid [Example 27] | – | – | – | 1050 nM |

Now from value to compound, other results behind:

| IC50 (HeLa cells; Homo sapiens, HeLa, 96 h) | IC50 (B16F10 cells) | IC50 (HeLa cells; trifluoroacetate) | Compound | IC50 (HeLa cells) |
| --- | --- | --- | --- | --- |
| 8 nM | 14 nM | – | CS(=N)(=O)Cc1cc2cc(c1)OCCCCOc1cc(F)ccc1-c1nc(ncc1F)N2 (racemic) [Example 1, (rac)-16,20-Difluoro-9-[(S-methylsulfonimidoyl)methyl]-2,3,4,5-tetrahydro-12H-13,17-(azeno)-11,7-(metheno)-1,6,12,14-benzodioxadiazacyclononadecine] | – |
| 4 nM | 14 nM | – | C[S+]([O-])Cc1cc2nc(c1)OCCCOc1cc(F)ccc1-c1cc(ncc1F)N2 (racemic) [Example 4, (rac)-15,19-Difluoro-8-[(methylsulfinyl)methyl]-3,4-dihydro-2H,11H-10,6-(azeno)-12,16-(metheno)-1,5,11,13-benzodioxadiazacyclooctadecine] | – |
| 11 nM | 22 nM | – | CS(=N)(=O)Cc1cc2nc(c1)OCCCCOc1cc(F)ccc1-c1cc(ncc1F)N2 (racemic) [Example 14, (rac)-16,20-difluoro-9-[(S-methylsulfonimidoyl)methyl]-2,3,4,5-tetrahydro-12H-11,7-(azeno)-13,17-(metheno)-1,6,12,14-benzodioxadiazacyclononadecine] | – |
| 10 nM | 18 nM | – | CS(=O)(Cc1cc2cc(c1)OCCCOc1cc(F)ccc1-c1nc(ncc1F)N2)=NC(=O)C(F)(F)F (racemic) [Example 16, (rac)-N-[{[15,19-difluoro-3,4-dihydro-2H,11H-12,16-(azeno)-10,6-(metheno)-1,5,11,13-benzodioxadiazacyclooctadecin-8-yl]methyl}(methyl)oxido-λ^6-sulfanylidene]-2,2,2-trifluoroacetamide] | – |
| 11 nM | – | – | CCNC(=O)N=S(C)(=O)Cc1cc2nc(c1)OCCCOc1cc(F)ccc1-c1cc(ncc1F)N2 (racemic) [Example 17, (rac)-1-[{[15,19-difluoro-3,4-dihydro-2H,11H-10,6-(azeno)-12,16-(metheno)-1,5,11,13-benzodioxadiazacyclooctadecin-8-yl]methyl}(methyl)oxido-λ^6-sulfanylidene]-3-ethylurea] | – |
| 10 nM | – | – | CC(=O)N=S(C)(=O)Cc1cc2nc(c1)OCCCOc1cc(F)ccc1-c1cc(ncc1F)N2 (racemic) [Example 18, (rac)-N-[{[15,19-difluoro-3,4-dihydro-2H,11H-10,6-(azeno)-12,16-(metheno)-1,5,11,13-benzodioxadiazacyclooctadecin-8-yl]methyl}(methyl)oxido-λ^6-sulfanylidene]acetamide] | – |
| 26 nM | – | – | CCOC(=O)N=S(C)(=O)Cc1cc2nc(c1)OCCCOc1cc(F)ccc1-c1cc(ncc1F)N2 (racemic) [Example 20, (rac)-ethyl [{[15,19-difluoro-3,4-dihydro-2H,11H-10,6-(azeno)-12,16-(metheno)-1,5,11,13-benzodioxadiazacyclooctadecin-8-yl]methyl}(methyl)oxido-λ^6-sulfanylidene]carbamate] | – |
